Test results taken from the NIST ThermoML archive (doi:10.1021/je049572f).
± gives the expanded uncertainty stated by the source.

Test: xn = mol fraction of the nth substance listed
Settings: 101.33 kPa, Liquid

CCc1ccccc1 [ethylbenzene] + CN1CCCC1=O
Settings | mass density [kg/m3] | viscosity [mPa·s]
303.15 K, x1 = 0.094 | 1006.25 ± 2.8 | 1.415 ± 0.047
303.15 K, x1 = 0.1901 | 989.43 ± 2.6 | 1.301 ± 0.041
303.15 K, x1 = 0.2859 | 972.61 ± 2.6 | 1.188 ± 0.037
303.15 K, x1 = 0.3839 | 955.98 ± 2.6 | 1.081 ± 0.032
303.15 K, x1 = 0.4839 | 939.38 ± 2.7 | 0.975 ± 0.028
303.15 K, x1 = 0.5835 | 923.22 ± 2.8 | 0.884 ± 0.025
303.15 K, x1 = 0.6854 | 906.91 ± 2.9 | 0.796 ± 0.022
303.15 K, x1 = 0.7888 | 890.73 ± 3.1 | 0.722 ± 0.02
303.15 K, x1 = 0.8937 | 874.71 ± 3.3 | 0.66 ± 0.018
303.15 K, x1 = 1 | 859.95 ± 3.6 | 0.598 ± 0.016
313.15 K, x1 = 0.094 | 997.35 ± 2.7 | 1.216 ± 0.041
313.15 K, x1 = 0.1901 | 980.53 ± 2.7 | 1.124 ± 0.036
313.15 K, x1 = 0.2859 | 963.71 ± 2.7 | 1.033 ± 0.032
313.15 K, x1 = 0.3839 | 947.11 ± 2.7 | 0.94 ± 0.028
313.15 K, x1 = 0.4839 | 930.52 ± 2.8 | 0.846 ± 0.025
313.15 K, x1 = 0.5835 | 914.35 ± 2.9 | 0.772 ± 0.022
313.15 K, x1 = 0.6854 | 898.04 ± 3.1 | 0.705 ± 0.02
313.15 K, x1 = 0.7888 | 881.86 ± 3.3 | 0.643 ± 0.018
313.15 K, x1 = 0.8937 | 865.85 ± 3.5 | 0.588 ± 0.016
313.15 K, x1 = 1 | 851.14 ± 3.7 | 0.537 ± 0.015
323.15 K, x1 = 0.094 | 988.46 ± 2.8 | 1.057 ± 0.036
323.15 K, x1 = 0.1901 | 971.63 ± 2.7 | 0.982 ± 0.032
323.15 K, x1 = 0.2859 | 954.81 ± 2.8 | 0.904 ± 0.028
323.15 K, x1 = 0.3839 | 938.2 ± 2.8 | 0.829 ± 0.025
323.15 K, x1 = 0.4839 | 921.64 ± 2.9 | 0.75 ± 0.022
323.15 K, x1 = 0.5835 | 905.4 ± 3 | 0.688 ± 0.02
323.15 K, x1 = 0.6854 | 889.1 ± 3.2 | 0.629 ± 0.018
323.15 K, x1 = 0.7888 | 873 ± 3.4 | 0.576 ± 0.016
323.15 K, x1 = 0.8937 | 856.9 ± 3.6 | 0.525 ± 0.015
323.15 K, x1 = 1 | 842.3 ± 3.8 | 0.483 ± 0.014
333.15 K, x1 = 0.094 | 979.51 ± 2.9 | 0.932 ± 0.032
333.15 K, x1 = 0.1901 | 962.67 ± 2.8 | 0.868 ± 0.028
333.15 K, x1 = 0.2859 | 945.85 ± 2.8 | 0.801 ± 0.025
333.15 K, x1 = 0.3839 | 929.24 ± 2.9 | 0.735 ± 0.023
333.15 K, x1 = 0.4839 | 912.7 ± 3 | 0.671 ± 0.02
333.15 K, x1 = 0.5835 | 896.46 ± 3.2 | 0.618 ± 0.018
333.15 K, x1 = 0.6854 | 880.17 ± 3.4 | 0.565 ± 0.016
333.15 K, x1 = 0.7888 | 864 ± 3.5 | 0.52 ± 0.015
333.15 K, x1 = 0.8937 | 847.93 ± 3.8 | 0.474 ± 0.014
333.15 K, x1 = 1 | 833.34 ± 4 | 0.437 ± 0.013
343.15 K, x1 = 0.094 | 970.56 ± 2.9 | 0.833 ± 0.029
343.15 K, x1 = 0.1901 | 953.71 ± 2.9 | 0.774 ± 0.026
343.15 K, x1 = 0.2859 | 936.87 ± 3 | 0.714 ± 0.023
343.15 K, x1 = 0.3839 | 920.25 ± 3 | 0.658 ± 0.021
343.15 K, x1 = 0.4839 | 903.71 ± 3.1 | 0.603 ± 0.018
343.15 K, x1 = 0.5835 | 887.45 ± 3.3 | 0.559 ± 0.017
343.15 K, x1 = 0.6854 | 871.13 ± 3.5 | 0.514 ± 0.015
343.15 K, x1 = 0.7888 | 854.97 ± 3.7 | 0.472 ± 0.014
343.15 K, x1 = 0.8937 | 838.91 ± 3.9 | 0.43 ± 0.013
343.15 K, x1 = 1 | 824.26 ± 4.1 | 0.397 ± 0.012
353.15 K, x1 = 0.094 | 961.56 ± 3 | 0.746 ± 0.026
353.15 K, x1 = 0.1901 | 944.7 ± 3 | 0.695 ± 0.023
353.15 K, x1 = 0.2859 | 927.86 ± 3 | 0.643 ± 0.021
353.15 K, x1 = 0.3839 | 911.2 ± 3.1 | 0.596 ± 0.019
353.15 K, x1 = 0.4839 | 894.64 ± 3.3 | 0.547 ± 0.017
353.15 K, x1 = 0.5835 | 878.35 ± 3.4 | 0.505 ± 0.016
353.15 K, x1 = 0.6854 | 862.01 ± 3.6 | 0.468 ± 0.014
353.15 K, x1 = 0.7888 | 845.86 ± 3.8 | 0.43 ± 0.013
353.15 K, x1 = 0.8937 | 829.76 ± 4.1 | 0.391 ± 0.012
353.15 K, x1 = 1 | 815.18 ± 4.3 | 0.366 ± 0.012
